Read-outs that look alike come from different tables or passages of the source.

The values that follow come from US20250034182A1, “PHOSPHOLIPID COMPOUNDS AND METHODS OF MAKING AND USING THE SAME” (priority 2021, published 2025).

Holding throughout (format): cell-based
Data set [1] relates to HCV Replicon 1B. Description: HCV Replicon 1B EC50 (Example Q). The note with it: Hepatitis C virus, 72 h, read-out: HCV Replicon 1B EC50 (nM) (per Ex. Q). On the procedure: (§1) Compounds were serially diluted in ten steps of 1:3 dilutions in 384-well plates. All serial dilutions were performed in four replicates per compound within the same 384-well plate. An HCV protease inhibitor ITMN-191 at […] was added as a control of 100% inhibition of HCV replication while puromycin at 10 mM was included as a control of 100% cytotoxicity. To each well of a black polystyrene 384-well plate (Greiner Bio-one, Monroe, NC), 90 μL of cell culture medium (without Geneticin) containing 2000 suspended HCV replicon cells was added with a Biotek μFlow workstation. For compound transfer into cell culture plates, 0.4 μL of compound solution from the compound serial dilution plate was transferred to the cell culture plate on a Biomek FX workstation. The DMSO concentration in the final assay wells was 0.44%. The plates were incubated for 3 days at 37° C. with 5% CO2 and 85% humidity. The HCV replicon assay was a multiplex assay, able to assess both cytotoxicity and antireplicon activity from the same well. The CC50 assay was performed first. The media in the 384-well cell culture plate was aspirated, and the wells were washed four times with 100 μL of PBS each, using a Biotek ELX405 plate washer. A volume of 50 μL of a solution containing 400 nM calcein AM (Anaspec, Fremont, CA) in 1×PBS was added to each well of the plate with a Biotek μFlow workstation. The plate was incubated for 30 min at room temperature before the fluorescence signal (excitation 490 nm, emission 520 nm) was measured with a Perkin-Elmer Envision plate reader. The EC50 assay was performed in the same wells as the CC50 assay. The calcein-PBS solution in the 384-well cell culture plate was aspirated with a Biotek ELX405 plate washer. A volume of 20 μL of Dual-Glo luciferase buffer (Promega, Madison, WI) was added to each well of the plate with a Biotek μFlow Workstation. The plate was incubated for 10 min at room temperature. A volume of 20 μL of a solution containing a 1:100 mixture of Dual-Glo Stop & Glo substrate (Promega, Madison, WI) and Dual-Glo Stop & Glo buffer (Promega, Madison, WI) was added to each well of the plate with a Biotek μFlow Workstation. The plate was then incubated at room temperature for 10 min before the luminescence signal was measured with a Perkin-Elmer Envision Plate Reader.

Data set [2] concerns Respiratory syncytial virus recombinant with luciferase (RSV-Luc5) in HEp-2 cells. Description: HEp-2 RSV-Luc5 384-well assay (EC50 RSVFLUC Hep2-384, Example R). The following applies: human respiratory syncytial virus, HEp-2, 72 h, read-out: RSV Hep-2 FLuc EC50 (nM) (per Ex. R). The gist of the method: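 HEp-2 cells (passage 5-20, DMEM + 10% FBS) seeded 4,000/well overnight, then given 10-point 1:3 compound dilutions and RSV-Luc5 at MOI 0.5 for 3 days at 37 °C. Replication read by One-Glo luminescence, normalized to remdesivir (0%) and DMSO (100%); EC50 from non-linear regression.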

The nature of data set [3]: HCV Replicon 1B CC50, calcein AM (Example Q). The following applies: calcein AM fluorescence, read-out: HCV Replicon 1B CC50 (nM) (per Ex. Q). On the procedure: as §1

One may read the EC50 as the concentration at which the effect is half-maximal. In general, CC50 refers to the concentration at which the toxic effect on the cells reaches its halfway point. As for `CCCCCCCCCCCCCCCCCCOC[C@H](COP(=O)(O)OC[C@@]1(C#N)O[C@@H](c2ccc3c(N)ncnn23)[C@H](O)[C@@H]1O)OCc1cccc(C#N)n1` [Compound 68, ((2R,3S,4R)-5-(4-aminopyrrolo[2,1-f][1,2,4]triazin-7-yl)-2-cyano-3,4-dihydroxytetrahydrofuran-2-yl)methyl ((R)-2-((6-cyanopyridin-2-yl)methoxy)-3-(octadecyloxy)propyl) hydrogen phosphate], the EC50 is 11500 nM in data set [1] and 118 nM in data set [2]. The CC50 at 3 days in data set [3] (HCV replicon cells) was greater than 44400 nM.
In the case of `CCCCCCCCCCCCCCCCCCOC[C@H](COP(=O)(O)OC[C@@]1(C#N)O[C@@H](c2ccc3c(N)ncnn23)[C@H](O)[C@@H]1O)OCc1ccc(C#N)cc1OC` [Compound 73, ((2R,3S,4R)-5-(4-aminopyrrolo[2,1-f][1,2,4]triazin-7-yl)-2-cyano-3,4-dihydroxytetrahydrofuran-2-yl)methyl ((R)-2-((4-cyano-2-methoxybenzyl)oxy)-3-(octadecyloxy)propyl) hydrogen phosphate], the EC50 in data set [1] (HCV replicon cells, 3 days, Dual-Glo luciferase) was found to be 15900 nM; in data set [2], 195 nM. In data set [3] (HCV replicon cells (1B)), the CC50 at 3 days is greater than 44400 nM.
